# Experimental data from ChEMBL document CHEMBL1201862, “PubChem BioAssay data set” (2004).
#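 Five compound concentrations were applied to cells in 96-well plates for 48 hours; endpoints were derived by simple linear interpolation of the resulting dose-response curve. Here, GI50 denotes the concentration required for 50% inhibition of growth.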 Calls of active or inactive are those of the source. Cut-off read from the data, not from the text of the source: active = GI50 up to about 1.1 µM and inactive = higher.
# Columns and labels:
# Experiment in all cases: inhibition of tumour cell growth, NCI panel, 48 h
# SF-295 = tested on: SF-295
# NCI-H226 = tested on: NCI-H226
# HL-60 = tested on: HL-60
# Malme-3M = tested on: Malme-3M
# UACC-62 = tested on: UACC-62
# EKVX = tested on: EKVX
# SNB-75 = tested on: SNB-75
# RPMI-8226 = tested on: RPMI-8226
# DMS-273 = tested on: DMS-273
# SK-MEL-2 = tested on: SK-MEL-2
# LOX IMVI = tested on: LOX IMVI
# CCRF-CEM = tested on: CCRF-CEM
# SNB-78 = tested on: SNB-78
# LXFL 529 = tested on: LXFL 529
# XF498 = tested on: XF498
# OVCAR-8 = tested on: OVCAR-8
# SK-MEL-28 = tested on: SK-MEL-28
# SF-539 = tested on: SF-539
# HT-29 = tested on: HT-29
# ACHN = tested on: ACHN
# OVCAR-5 = tested on: OVCAR-5
# SNB-19 = tested on: SNB-19
# KM-20L2 = tested on: KM-20L2
# UO-31 = tested on: UO-31
# IGROV-1 = tested on: IGROV-1
# NCI-H522 = tested on: NCI-H522
# A549 = tested on: A549
# M14 = tested on: M14
# SW-620 = tested on: SW-620
# MOLT-4 = tested on: MOLT-4
# K562 = tested on: K562
# NCI-H460 = tested on: NCI-H460
# RXF 393 = tested on: RXF 393
# COLO 205 = tested on: COLO 205
# U-251 = tested on: U-251
# OVCAR-4 = tested on: OVCAR-4
# M19-MEL = tested on: M19-MEL
# HOP-62 = tested on: HOP-62
# SR = tested on: SR
# 786-0 = tested on: 786-0
# KM12 = tested on: KM12
# SK-MEL-5 = tested on: SK-MEL-5
# NCI-H23 = tested on: NCI-H23
# SF-268 = tested on: SF-268
# DMS-114 = tested on: DMS-114
# HCT-116 = tested on: HCT-116
# TK-10 = tested on: TK-10
# HCT-15 = tested on: HCT-15
# OVCAR-3 = tested on: OVCAR-3
# SN12C = tested on: SN12C
# CAKI-1 = tested on: CAKI-1
# HCC 2998 = tested on: HCC 2998
# HOP-18 = tested on: HOP-18
# SK-OV-3 = tested on: SK-OV-3
# HOP-92 = tested on: HOP-92
# DLD-1 = tested on: DLD-1
smiles,measurement,setting,value
O=C1CC2(CCC3=C(O2)c2ccccc2NC(=O)C3)C(=O)c2ccccc2N1 (stereo not drawn),GI50,SF-295,> 100 µM (inactive)
same,GI50,NCI-H226,> 100 µM (inactive)
same,GI50,HL-60,> 100 µM (inactive)
same,GI50,Malme-3M,> 100 µM (inactive)
same,GI50,UACC-62,> 100 µM (inactive)
same,GI50,EKVX,> 100 µM (inactive)
same,GI50,SNB-75,22.2 µM (inactive)
same,GI50,RPMI-8226,87.1 µM (inactive)
same,GI50,DMS-273,> 100 µM (inactive)
same,GI50,SK-MEL-2,> 100 µM (inactive)
same,GI50,LOX IMVI,> 100 µM (inactive)
same,GI50,CCRF-CEM,> 100 µM (inactive)
same,GI50,SNB-78,> 100 µM (inactive)
same,GI50,LXFL 529,> 100 µM (inactive)
same,GI50,XF498,> 100 µM (inactive)
same,GI50,OVCAR-8,> 100 µM (inactive)
same,GI50,SK-MEL-28,> 100 µM (inactive)
same,GI50,SF-539,> 100 µM (inactive)
same,GI50,HT-29,> 100 µM (inactive)
same,GI50,ACHN,> 100 µM (inactive)
same,GI50,OVCAR-5,> 100 µM (inactive)
same,GI50,SNB-19,98.6 µM (inactive)
same,GI50,KM-20L2,> 100 µM (inactive)
same,GI50,UO-31,41.9 µM (inactive)
same,GI50,IGROV-1,> 100 µM (inactive)
same,GI50,NCI-H522,> 100 µM (inactive)
same,GI50,A549,> 100 µM (inactive)
same,GI50,M14,> 100 µM (inactive)
same,GI50,SW-620,> 100 µM (inactive)
same,GI50,MOLT-4,> 100 µM (inactive)
same,GI50,K562,48.1 µM (inactive)
same,GI50,NCI-H460,> 100 µM (inactive)
same,GI50,RXF 393,> 100 µM (inactive)
same,GI50,COLO 205,> 100 µM (inactive)
same,GI50,U-251,> 100 µM (inactive)
same,GI50,OVCAR-4,> 100 µM (inactive)
same,GI50,M19-MEL,> 100 µM (inactive)
same,GI50,HOP-62,> 100 µM (inactive)
same,GI50,SR,> 10 µM (inactive)
same,GI50,786-0,> 100 µM (inactive)
same,GI50,KM12,> 100 µM (inactive)
same,GI50,SK-MEL-5,> 100 µM (inactive)
same,GI50,NCI-H23,> 100 µM (inactive)
same,GI50,SF-268,> 100 µM (inactive)
same,GI50,DMS-114,> 100 µM (inactive)
same,GI50,HCT-116,> 100 µM (inactive)
same,GI50,TK-10,> 100 µM (inactive)
same,GI50,HCT-15,> 100 µM
same,GI50,OVCAR-3,> 100 µM (inactive)
same,GI50,SN12C,> 100 µM (inactive)
[N-]=[N+]=NC(CBr)c1cn([C@H]2C[C@H](O)[C@@H](CO)O2)c(=O)[nH]c1=O (stereo partly drawn),GI50,SF-295,> 100 µM (inactive)
same,GI50,NCI-H226,> 100 µM (inactive)
same,GI50,HL-60,> 100 µM (inactive)
same,GI50,Malme-3M,> 100 µM (inactive)
same,GI50,UACC-62,> 100 µM (inactive)
same,GI50,EKVX,> 100 µM (inactive)
same,GI50,SNB-75,> 100 µM (inactive)
same,GI50,RPMI-8226,> 100 µM (inactive)
same,GI50,DMS-273,> 100 µM (inactive)
same,GI50,SK-MEL-2,> 100 µM (inactive)
same,GI50,LOX IMVI,> 100 µM (inactive)
same,GI50,CAKI-1,> 100 µM (inactive)
same,GI50,HCC 2998,> 100 µM (inactive)
same,GI50,HOP-18,1.99 µM (inactive)
same,GI50,CCRF-CEM,> 100 µM (inactive)
same,GI50,SNB-78,> 100 µM (inactive)
same,GI50,LXFL 529,> 100 µM (inactive)
same,GI50,OVCAR-8,> 100 µM (inactive)
same,GI50,SK-MEL-28,> 100 µM (inactive)
same,GI50,SF-539,> 100 µM (inactive)
same,GI50,HT-29,> 100 µM (inactive)
same,GI50,ACHN,> 100 µM (inactive)
same,GI50,OVCAR-5,> 100 µM (inactive)
same,GI50,SNB-19,> 100 µM (inactive)
same,GI50,KM-20L2,> 100 µM (inactive)
same,GI50,UO-31,> 100 µM (inactive)
same,GI50,IGROV-1,> 100 µM (inactive)
same,GI50,NCI-H522,> 100 µM (inactive)
same,GI50,A549,> 100 µM (inactive)
same,GI50,M14,> 100 µM (inactive)
same,GI50,SW-620,> 100 µM (inactive)
same,GI50,MOLT-4,> 100 µM (inactive)
same,GI50,K562,> 100 µM (inactive)
same,GI50,NCI-H460,> 100 µM (inactive)
same,GI50,RXF 393,> 100 µM (inactive)
same,GI50,COLO 205,> 100 µM (inactive)
same,GI50,U-251,> 100 µM (inactive)
same,GI50,SK-OV-3,> 100 µM (inactive)
same,GI50,HOP-92,> 100 µM (inactive)
same,GI50,M19-MEL,> 100 µM (inactive)
same,GI50,HOP-62,> 100 µM (inactive)
same,GI50,SR,> 100 µM (inactive)
same,GI50,786-0,> 100 µM (inactive)
same,GI50,KM12,> 100 µM (inactive)
same,GI50,SK-MEL-5,> 100 µM (inactive)
same,GI50,NCI-H23,> 100 µM (inactive)
same,GI50,DMS-114,> 100 µM (inactive)
same,GI50,HCT-116,> 100 µM (inactive)
same,GI50,TK-10,> 100 µM (inactive)
same,GI50,HCT-15,> 100 µM
same,GI50,DLD-1,> 100 µM (inactive)
same,GI50,OVCAR-3,> 100 µM (inactive)
same,GI50,SN12C,> 100 µM (inactive)
